Measurements as given in ChEMBL document CHEMBL3763037 (J Med Chem, 2016).

What was measured:
[1] = Oral bioavailability in Sprague-Dawley rat at 10 mg/kg by LC-MS/MS analysis; type: ADME, organism-based; conditions: Sprague-Dawley, in vivo
[2] = AUC in Sprague-Dawley rat at 10 mg/kg, po by LC-MS/MS analysis; type: ADME, organism-based; conditions: Sprague-Dawley, in vivo
[3] = Cmax in Sprague-Dawley rat at 10 mg/kg, po by LC-MS/MS analysis; type: ADME, organism-based; set-up: dose 10 mg/kg, route oral; conditions: in vivo
[4] = Volume of distribution at steady state in Sprague-Dawley rat at 5 mg/kg, iv by LC-MS/MS analysis; type: ADME, organism-based; conditions: in vivo, read-out: Vdss
[5] = Clearance in Sprague-Dawley rat at 5 mg/kg, iv by LC-MS/MS analysis; type: ADME, organism-based; conditions: in vivo
Rattus norvegicus = experiment: Terminal eliminational half life in Sprague-Dawley rat at 5 mg/kg, iv by LC-MS/MS analysis; type: ADME, organism-based; conditions: in vivo
CYP2C19 = CYP2C19 (Homo sapiens, UniProt P33261); experiment: Inhibition of CYP2C19 (unknown origin) at 10 uM; type: ADME
[6] = target: Voltage-gated inwardly rectifying potassium channel KCNH2 (Homo sapiens, UniProt Q12809); experiment: Inhibition of human ERG by cell based assay
[7] = Plasma protein binding in human; type: ADME, cell-free; conditions: read-out: PPB (converted)
CYP2C9 = CYP2C9 (Homo sapiens, UniProt P11712); experiment: Inhibition of CYP2C9 (unknown origin) at 10 uM; type: ADME
CYP2D6 = CYP2D6 (Homo sapiens, UniProt P10635); experiment: Inhibition of CYP2D6 (unknown origin) at 10 uM; type: ADME
CYP3A4 = CYP3A4 (Homo sapiens, UniProt P08684); experiment: Inhibition of CYP3A4 (unknown origin) at 10 uM; type: ADME
CYP1A2 = target: T1, CYP1A2 (Homo sapiens, UniProt P05177); experiment: Inhibition of CYP1A2 (unknown origin) at 10 uM; type: ADME
T1 sequence (P05177 whole entry): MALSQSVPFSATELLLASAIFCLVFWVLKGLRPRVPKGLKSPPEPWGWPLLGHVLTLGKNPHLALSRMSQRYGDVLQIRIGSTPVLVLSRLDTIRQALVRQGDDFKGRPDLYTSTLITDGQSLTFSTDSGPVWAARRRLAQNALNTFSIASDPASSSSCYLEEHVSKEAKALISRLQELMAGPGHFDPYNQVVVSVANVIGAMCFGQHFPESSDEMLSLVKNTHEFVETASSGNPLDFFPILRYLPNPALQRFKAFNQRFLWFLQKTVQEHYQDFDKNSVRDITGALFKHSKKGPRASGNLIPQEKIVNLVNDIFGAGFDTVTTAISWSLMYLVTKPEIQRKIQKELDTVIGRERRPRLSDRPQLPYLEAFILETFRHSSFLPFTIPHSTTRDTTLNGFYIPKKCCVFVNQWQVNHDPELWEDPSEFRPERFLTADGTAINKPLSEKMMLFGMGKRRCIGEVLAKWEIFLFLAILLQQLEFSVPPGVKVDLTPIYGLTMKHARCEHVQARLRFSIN

Salmonella typhimurium = experiment: Mutagenicity in Salmonella typhimurium at 5 mg by Ames test; type: toxicity, organism-based, Salmonella enterica subsp. enterica serovar Typhimurium; conditions: in vivo
[8] = Half life in beagle dog at 0.1 mg/kg, po; type: ADME, organism-based, Canis lupus familiaris; conditions: in vivo
[9] = Cytotoxicity against BRCA2-deficient human Capan1 cells; type: functional, cell-based, CAPAN-1; conditions: Homo sapiens, CAPAN-1
MRC5 = experiment: Cytotoxicity against human MRC5 cells; type: cell-based; conditions: Homo sapiens, MRC5
[10] = AUC (0 to t) in beagle dog at 0.1 mg/kg, po; type: ADME, organism-based, Canis lupus familiaris; conditions: in vivo
[11] = AUC (0 to infinity) in beagle dog at 0.1 mg/kg, po; type: ADME, organism-based, Canis lupus familiaris; set-up: dose 0.1 mg/kg, route oral, time infinity; conditions: in vivo
[12] = Cmax in beagle dog at 0.1 mg/kg, po; type: ADME, organism-based, Canis lupus familiaris; set-up: dose 0.1 mg/kg, route oral; conditions: in vivo
[13] = Tmax in beagle dog at 0.1 mg/kg, po; type: ADME, organism-based, Canis lupus familiaris; conditions: in vivo
Canis familiaris = experiment: Clast in beagle dog at 0.1 mg/kg, po; type: ADME, organism-based, Canis lupus familiaris; conditions: in vivo
[14] = Apparent oral clearance in beagle dog at 0.1 mg/kg, po; type: ADME, organism-based, Canis lupus familiaris; conditions: in vivo
[15] = Absolute oral bioavailability in beagle dog at 0.1 mg/kg; type: ADME, organism-based, Canis lupus familiaris; conditions: in vivo
[16] = Half life in human; type: ADME, organism-based; conditions: in vivo
Mus musculus [17] = experiment: Toxicity in athymic nu/nu mouse assessed as mortality at 0.1 to 0.33 mg/kg, po qd for 28 days; type: organism-based; conditions: in vivo, 672 h
Mus musculus [18] = experiment: Toxicity in athymic nu/nu mouse assessed as change in body weight at 0.1 to 0.33 mg/kg, po qd for 28 days; type: organism-based; conditions: in vivo, 672 h
LoVo = experiment: cells; conditions: Homo sapiens, 120 h

Sequence of CYP2C19 (P33261 whole entry): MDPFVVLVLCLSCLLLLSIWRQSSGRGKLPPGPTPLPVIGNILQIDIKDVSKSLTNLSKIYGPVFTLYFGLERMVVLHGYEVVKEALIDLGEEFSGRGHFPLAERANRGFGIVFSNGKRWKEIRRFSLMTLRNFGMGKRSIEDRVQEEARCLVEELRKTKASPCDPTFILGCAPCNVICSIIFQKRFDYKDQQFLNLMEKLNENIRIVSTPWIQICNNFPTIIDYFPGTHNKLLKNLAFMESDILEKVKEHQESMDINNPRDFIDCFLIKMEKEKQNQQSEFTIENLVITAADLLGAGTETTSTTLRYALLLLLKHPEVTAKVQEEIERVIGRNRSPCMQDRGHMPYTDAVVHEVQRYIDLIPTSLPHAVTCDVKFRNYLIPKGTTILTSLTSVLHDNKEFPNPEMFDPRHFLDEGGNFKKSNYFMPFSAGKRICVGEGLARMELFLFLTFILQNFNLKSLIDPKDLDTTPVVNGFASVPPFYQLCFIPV
Sequence of CYP3A4 (P08684 whole entry): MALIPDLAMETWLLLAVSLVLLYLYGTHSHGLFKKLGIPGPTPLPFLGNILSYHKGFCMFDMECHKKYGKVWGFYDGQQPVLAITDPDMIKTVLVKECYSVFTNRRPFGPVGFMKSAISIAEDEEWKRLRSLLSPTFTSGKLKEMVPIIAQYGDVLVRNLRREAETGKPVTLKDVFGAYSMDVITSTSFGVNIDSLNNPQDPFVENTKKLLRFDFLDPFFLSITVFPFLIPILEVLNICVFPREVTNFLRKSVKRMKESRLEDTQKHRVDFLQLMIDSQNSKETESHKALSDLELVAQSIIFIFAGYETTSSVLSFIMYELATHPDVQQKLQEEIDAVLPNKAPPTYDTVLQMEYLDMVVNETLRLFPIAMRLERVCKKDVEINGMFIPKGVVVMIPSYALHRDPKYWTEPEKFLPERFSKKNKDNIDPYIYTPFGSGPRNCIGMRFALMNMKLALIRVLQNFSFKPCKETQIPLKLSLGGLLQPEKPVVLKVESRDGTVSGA
Sequence of CYP2C9 (P11712 whole entry): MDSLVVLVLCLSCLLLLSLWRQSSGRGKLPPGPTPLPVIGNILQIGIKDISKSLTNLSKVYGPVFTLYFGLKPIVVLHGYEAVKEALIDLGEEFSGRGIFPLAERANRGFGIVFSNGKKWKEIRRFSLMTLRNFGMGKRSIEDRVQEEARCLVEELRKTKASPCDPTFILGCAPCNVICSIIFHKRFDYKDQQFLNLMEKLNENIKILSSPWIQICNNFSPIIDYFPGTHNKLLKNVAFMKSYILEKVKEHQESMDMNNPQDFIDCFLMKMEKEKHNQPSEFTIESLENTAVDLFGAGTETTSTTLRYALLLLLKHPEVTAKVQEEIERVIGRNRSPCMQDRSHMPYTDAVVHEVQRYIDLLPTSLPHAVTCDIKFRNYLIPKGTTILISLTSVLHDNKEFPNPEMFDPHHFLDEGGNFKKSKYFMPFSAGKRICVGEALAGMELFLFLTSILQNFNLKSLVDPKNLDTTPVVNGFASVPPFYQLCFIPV
Sequence of CYP2D6 (P10635 whole entry): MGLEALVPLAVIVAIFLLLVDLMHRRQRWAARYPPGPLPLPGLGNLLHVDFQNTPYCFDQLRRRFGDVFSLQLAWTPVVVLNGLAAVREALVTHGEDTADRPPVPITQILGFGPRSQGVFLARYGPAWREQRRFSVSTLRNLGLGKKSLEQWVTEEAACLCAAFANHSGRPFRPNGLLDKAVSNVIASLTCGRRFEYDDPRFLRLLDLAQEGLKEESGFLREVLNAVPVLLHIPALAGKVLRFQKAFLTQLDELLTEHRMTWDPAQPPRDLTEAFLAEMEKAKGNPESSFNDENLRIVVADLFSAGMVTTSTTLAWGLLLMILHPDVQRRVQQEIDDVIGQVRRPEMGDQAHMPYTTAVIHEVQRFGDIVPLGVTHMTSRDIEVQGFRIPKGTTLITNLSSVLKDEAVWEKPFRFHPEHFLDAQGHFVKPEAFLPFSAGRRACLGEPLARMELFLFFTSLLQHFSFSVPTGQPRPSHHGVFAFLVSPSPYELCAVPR
Sequence of Voltage-gated inwardly rectifying potassium channel KCNH2 (Q12809 whole entry): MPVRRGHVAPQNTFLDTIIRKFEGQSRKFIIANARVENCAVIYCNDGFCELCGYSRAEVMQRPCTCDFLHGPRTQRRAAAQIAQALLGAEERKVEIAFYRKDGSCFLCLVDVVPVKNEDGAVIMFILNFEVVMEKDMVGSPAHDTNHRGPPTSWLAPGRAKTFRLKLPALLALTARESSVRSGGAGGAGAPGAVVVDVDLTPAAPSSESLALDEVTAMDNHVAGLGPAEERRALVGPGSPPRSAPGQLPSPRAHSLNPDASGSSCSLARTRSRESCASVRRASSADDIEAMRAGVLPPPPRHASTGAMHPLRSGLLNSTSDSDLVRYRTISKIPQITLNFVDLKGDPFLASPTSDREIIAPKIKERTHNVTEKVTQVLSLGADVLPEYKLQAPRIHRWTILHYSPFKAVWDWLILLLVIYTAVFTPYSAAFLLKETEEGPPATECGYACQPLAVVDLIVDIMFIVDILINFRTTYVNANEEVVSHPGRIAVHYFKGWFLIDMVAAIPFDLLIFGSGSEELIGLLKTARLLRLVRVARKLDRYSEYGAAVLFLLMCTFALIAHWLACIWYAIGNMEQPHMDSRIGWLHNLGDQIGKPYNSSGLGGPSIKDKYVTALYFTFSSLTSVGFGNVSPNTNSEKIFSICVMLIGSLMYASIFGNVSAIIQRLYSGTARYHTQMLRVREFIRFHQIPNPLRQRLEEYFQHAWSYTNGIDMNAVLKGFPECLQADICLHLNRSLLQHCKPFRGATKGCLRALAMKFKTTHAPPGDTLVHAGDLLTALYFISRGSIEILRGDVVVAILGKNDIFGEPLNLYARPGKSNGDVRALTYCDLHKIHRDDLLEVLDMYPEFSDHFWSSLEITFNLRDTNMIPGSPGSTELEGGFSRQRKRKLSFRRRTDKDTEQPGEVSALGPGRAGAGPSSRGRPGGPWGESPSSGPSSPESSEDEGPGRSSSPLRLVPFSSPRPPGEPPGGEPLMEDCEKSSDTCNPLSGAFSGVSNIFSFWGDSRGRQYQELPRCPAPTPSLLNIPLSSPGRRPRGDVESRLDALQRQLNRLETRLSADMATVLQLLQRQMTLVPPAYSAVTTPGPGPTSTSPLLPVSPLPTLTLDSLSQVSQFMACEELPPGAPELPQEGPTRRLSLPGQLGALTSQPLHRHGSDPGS

In the case of Cn1ncnc1[C@H]1c2n[nH]c(=O)c3cc(F)cc(c23)N[C@@H]1c1ccc(F)cc1 [TALAZOPARIB], the bioavailability [1] is reported as 56%, the AUC [2] is reported as 56100 ng·h/mL and the Cmax [3] is reported as 7950 ng/mL. For the same compound, the Vd [4] was 0.3 L/kg, the clearance [5] was 2 mL/min/kg and the “beta t1/2” value (Rattus norvegicus) was 2.25 h. For the same compound, the inhibition at 10 µM (CYP2C19) was less than 12%, the IC50 [6] was greater than 100000 nM and the fraction unbound [7] was 0.213. The inhibition at 10 µM (CYP2C9) was less than 12%, the inhibition at 10 µM (CYP2D6) was less than 12% and the inhibition at 10 µM (CYP3A4) was less than 12%. For the same compound, the inhibition at 10 µM (CYP1A2) was less than 12%, the Activity (Salmonella typhimurium) was “Non-toxic” and the half-life [8] was 17.9 h. The EC50 [9] was 5 nM, the EC50 (MRC5) was 310 nM and the AUC(0-t) [10] was 619 ng·h/mL. The AUC(0-inf) [11] was 629 ng·h/mL, the Cmax [12] was 72.2 ng/mL and the Tmax [13] was 2 h. For the same compound, the Clast (Canis familiaris) was 0.365 ng/mL, the CL/F [14] was 2.7 mL/min/kg and the bioavailability [15] was 121%. For the same compound, the half-life [16] was 40 h, the Activity (Mus musculus [17]) was “Non-toxic” and the Activity (Mus musculus [18]) was “Non-toxic”. The GI50 (LoVo) was 4 nM.
